This is an account of results in ChEMBL document CHEMBL1141655, “Structure-activity relationships of Bak derived peptides: affinity and specificity modulations by amino acid replacement” (Eur J Med Chem, 2008).

SMILES strings stand for the structures. Non-standard residues stand in square brackets, D forms with d. Residues, ends and D or L forms follow the SMILES beside them. Phe(4-Cl) = N[C@@H](Cc1ccc(Cl)cc1)C(=O)O; 2Nal = N[C@@H](Cc1ccc2ccccc2c1)C(=O)O

Sequence of Bcl-2-like protein 1 (Q07817 whole entry): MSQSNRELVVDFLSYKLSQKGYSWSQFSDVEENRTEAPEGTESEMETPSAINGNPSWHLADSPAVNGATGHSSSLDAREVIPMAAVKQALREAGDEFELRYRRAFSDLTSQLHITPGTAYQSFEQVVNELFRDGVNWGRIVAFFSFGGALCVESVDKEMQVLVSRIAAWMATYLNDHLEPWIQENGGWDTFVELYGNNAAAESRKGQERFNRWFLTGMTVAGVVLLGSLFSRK

The first assay addresses Bcl-2-like protein 1 (Homo sapiens, UniProt Q07817). Put plainly: Binding affinity to recombinant Bcl-XL expressed in Escherichia coli BL21 by fluorescence polarization assay.
Turning to `CC[C@H](C)[C@H](NC(=O)[C@H](C)NC(=O)[C@H](CC(C)C)NC(=O)[C@H](CCC(N)=O)NC(=O)[C@H](CCCNC(=N)N)NC(=O)CNC(=O)[C@@H](NC(=O)[C@H](CCC(N)=O)NC(=O)CN)C(C)C)C(=O)N[C@@H](C)C(=O)NCC(=O)N[C@@H](CC(=O)O)C(=O)N[C@@H](CC(=O)O)C(=O)N[C@H](C(=O)N[C@@H](CC(N)=O)C(=O)N[C@@H](CCCNC(=N)N)C(=O)O)[C@@H](C)CC`, the EC50 was 17000 nM. The same measure, in the same setting: next, `CC[C@H](C)[C@H](NC(=O)[C@H](C)NC(=O)[C@H](Cc1cccnc1)NC(=O)[C@H](CCC(N)=O)NC(=O)[C@H](CCCN=C(N)N)NC(=O)CNC(=O)[C@@H](NC(=O)[C@H](CCC(N)=O)NC(=O)CN)C(C)C)C(=O)N[C@H](C(=O)NCC(=O)N[C@@H](CC(=O)O)C(=O)N[C@@H](CC(=O)O)C(=O)N[C@H](C(=O)N[C@@H](CC(N)=O)C(=O)N[C@@H](CCCN=C(N)N)C(=O)O)[C@@H](C)CC)[C@@H](C)CC`: 9740 nM.

Take `CC[C@H](C)[C@H](NC(=O)[C@H](C)NC(=O)[C@H](CC1CCCCC1)NC(=O)[C@H](CCC(N)=O)NC(=O)[C@H](CCCNC(=N)N)NC(=O)CNC(=O)[C@@H](NC(=O)[C@H](CCC(N)=O)NC(=O)CN)C(C)C)C(=O)N[C@H](C(=O)NCC(=O)N[C@@H](CC(=O)O)C(=O)N[C@@H](CC(=O)O)C(=O)N[C@H](C(=O)N[C@@H](CC(N)=O)C(=O)N[C@@H](CCCNC(=N)N)C(=O)O)[C@@H](C)CC)[C@@H](C)CC`: the EC50 was 219 nM.

`CC[C@H](C)[C@H](NC(=O)[C@H](C)NC(=O)[C@H](CC(C)C)NC(=O)[C@H](CCC(N)=O)NC(=O)[C@H](CCCNC(=N)N)NC(=O)CNC(=O)[C@@H](NC(=O)[C@H](CCC(N)=O)NC(=O)CN)C(C)C)C(=O)N[C@H](C(=O)NCC(=O)N[C@@H](CC(=O)O)C(=O)N[C@@H](CC(=O)O)C(=O)N[C@@H](Cc1cccc(Cl)c1)C(=O)N[C@@H](CC(N)=O)C(=O)N[C@@H](CCCNC(=N)N)C(=O)O)[C@@H](C)CC`: the EC50 was 56 nM. For `CC[C@H](C)[C@H](NC(=O)[C@H](C)NC(=O)[C@H](CC(C)C)NC(=O)[C@H](CCC(N)=O)NC(=O)[C@H](CCCNC(=N)N)NC(=O)CNC(=O)[C@@H](NC(=O)[C@H](CCC(N)=O)NC(=O)CN)C(C)C)C(=O)N[C@@H](Cc1ccccc1)C(=O)NCC(=O)N[C@@H](CC(=O)O)C(=O)N[C@@H](CC(=O)O)C(=O)N[C@H](C(=O)N[C@@H](CC(N)=O)C(=O)N[C@@H](CCCNC(=N)N)C(=O)O)[C@@H](C)CC`, the EC50 was determined as 2140 nM. `CC[C@H](C)[C@H](NC(=O)[C@H](C)NC(=O)[C@H](CC(C)C)NC(=O)[C@H](CCC(N)=O)NC(=O)[C@H](CCCN=C(N)N)NC(=O)CNC(=O)[C@@H](NC(=O)[C@H](CCC(N)=O)NC(=O)CN)C(C)C)C(=O)N[C@H](C(=O)NCC(=O)N[C@@H](CC(=O)O)C(=O)N[C@@H](CC(=O)O)C(=O)N[C@@H](Cc1cccc2ccccc12)C(=O)N[C@@H](CC(N)=O)C(=O)N[C@@H](CCCN=C(N)N)C(=O)O)[C@@H](C)CC`: the EC50 is 77 nM. Same read-out and setting: the figure for `CC[C@H](C)[C@H](NC(=O)[C@H](C)NC(=O)[C@H](CC(C)C)NC(=O)[C@H](CCC(N)=O)NC(=O)[C@H](CCCN=C(N)N)NC(=O)CNC(=O)[C@H](Cc1ccccc1)NC(=O)[C@H](CCC(N)=O)NC(=O)CN)C(=O)N[C@H](C(=O)NCC(=O)N[C@@H](CC(=O)O)C(=O)N[C@@H](CC(=O)O)C(=O)N[C@H](C(=O)N[C@@H](CC(N)=O)C(=O)N[C@@H](CCCN=C(N)N)C(=O)O)[C@@H](C)CC)[C@@H](C)CC` is 304 nM; for `CC[C@H](C)[C@H](NC(=O)[C@H](C)NC(=O)[C@H](CC(C)C)NC(=O)[C@H](CCC(N)=O)NC(=O)[C@H](CCCNC(=N)N)NC(=O)CNC(=O)[C@@H](NC(=O)[C@H](CCC(N)=O)NC(=O)CN)C(C)C)C(=O)N[C@H](C(=O)NCC(=O)N[C@@H](CC(=O)O)C(=O)N[C@@H](CC(=O)O)C(=O)N[C@@H](Cc1cnc[nH]1)C(=O)N[C@@H](CC(N)=O)C(=O)N[C@@H](CCCNC(=N)N)C(=O)O)[C@@H](C)CC` it is 5120 nM; for `CC[C@H](C)[C@H](NC(=O)[C@H](C)NC(=O)[C@H](CC(C)C)NC(=O)[C@H](CCC(N)=O)NC(=O)[C@H](CCCNC(=N)N)NC(=O)CNC(=O)[C@@H](NC(=O)[C@H](CCC(N)=O)NC(=O)CN)C(C)C)C(=O)N[C@H](C(=O)NCC(=O)N[C@@H](CC(=O)O)C(=O)N[C@@H](CC(=O)O)C(=O)N[C@@H](Cc1ccc(-c2ccccc2)cc1)C(=O)N[C@@H](CC(N)=O)C(=O)N[C@@H](CCCNC(=N)N)C(=O)O)[C@@H](C)CC` it is 267 nM. The same measure, in the same setting: the figure for `CC[C@H](C)[C@H](NC(=O)[C@H](C)NC(=O)[C@H](Cc1ccc2ccccc2c1)NC(=O)[C@H](CCC(N)=O)NC(=O)[C@H](CCCNC(=N)N)NC(=O)CNC(=O)[C@@H](NC(=O)[C@H](CCC(N)=O)NC(=O)CN)C(C)C)C(=O)N[C@H](C(=O)NCC(=O)N[C@@H](CC(=O)O)C(=O)N[C@@H](CC(=O)O)C(=O)N[C@@H](Cc1ccc(Cl)cc1)C(=O)N[C@@H](CC(N)=O)C(=O)N[C@@H](CCCNC(=N)N)C(=O)O)[C@@H](C)CC` (H-GQVGRQ[2Nal]AIIGDD[Phe(4-Cl)]NR-OH) is 53 nM; for `CC[C@H](C)[C@H](NC(=O)[C@H](C)NC(=O)[C@H](CCc1ccccc1)NC(=O)[C@H](CCC(N)=O)NC(=O)[C@H](CCCNC(=N)N)NC(=O)CNC(=O)[C@@H](NC(=O)[C@H](CCC(N)=O)NC(=O)CN)C(C)C)C(=O)N[C@H](C(=O)NCC(=O)N[C@@H](CC(=O)O)C(=O)N[C@@H](CC(=O)O)C(=O)N[C@H](C(=O)N[C@@H](CC(N)=O)C(=O)N[C@@H](CCCNC(=N)N)C(=O)O)[C@@H](C)CC)[C@@H](C)CC` it is 225 nM.

Tested on in the next assay: not listed separately
In words: Selectivity ratio of EC50 for recombinant Bcl-2 to EC50 for recombinant Bcl-XL.
As to `CC[C@H](C)[C@H](NC(=O)[C@H](C)NC(=O)[C@H](CCSC)NC(=O)[C@H](CCC(N)=O)NC(=O)[C@H](CCCNC(=N)N)NC(=O)CNC(=O)[C@@H](NC(=O)[C@H](CCC(N)=O)NC(=O)CN)C(C)C)C(=O)N[C@H](C(=O)NCC(=O)N[C@@H](CC(=O)O)C(=O)N[C@@H](CC(=O)O)C(=O)N[C@H](C(=O)N[C@@H](CC(N)=O)C(=O)N[C@@H](CCCNC(=N)N)C(=O)O)[C@@H](C)CC)[C@@H](C)CC`, the Ratio EC50 came to 21.

With `CC[C@H](C)[C@H](NC(=O)[C@H](C)NC(=O)[C@H](CC(C)C)NC(=O)[C@H](CCC(N)=O)NC(=O)[C@H](CCCNC(=N)N)NC(=O)CNC(=O)[C@@H](NC(=O)[C@H](CCC(N)=O)NC(=O)CN)C(C)C)C(=O)N[C@@H](Cc1ccc(-c2ccccc2)cc1)C(=O)NCC(=O)N[C@@H](CC(=O)O)C(=O)N[C@@H](CC(=O)O)C(=O)N[C@H](C(=O)N[C@@H](CC(N)=O)C(=O)N[C@@H](CCCNC(=N)N)C(=O)O)[C@@H](C)CC`, the Ratio EC50 is 17. With `CCCC[C@H](NC(=O)[C@H](CCC(N)=O)NC(=O)CN)C(=O)NCC(=O)N[C@@H](CCCNC(=N)N)C(=O)N[C@@H](CCC(N)=O)C(=O)N[C@@H](CC(C)C)C(=O)N[C@@H](C)C(=O)N[C@H](C(=O)N[C@H](C(=O)NCC(=O)N[C@@H](CC(=O)O)C(=O)N[C@@H](CC(=O)O)C(=O)N[C@H](C(=O)N[C@@H](CC(N)=O)C(=O)N[C@@H](CCCNC(=N)N)C(=O)O)[C@@H](C)CC)[C@@H](C)CC)[C@@H](C)CC`, the Ratio EC50 was 11.
